Assay results as given in patent publication US8633025B2, “Generation of neuronal cells from embryonic stem cells” (Universite Libre de Bruxelles, priority 2007, dated 2014).

Assays:
ES cell-derived neurons [1] = assay: Whole-cell patch clamp recording of spontaneous post-synaptic currents; type: cell-based, mouse; conditions: for Inhibition of recorded ePSCs: NBQX 5 μM and APV 50 μM
Protocol: Electrophysiological recordings were performed at room temperature (20-25° C.) in an external solution (ACSF) containing 120 mM NaCl, 26 mM NaHCO3, 11 mM D-glucose, 2 mM KCl, 2 mM CaCl2, 1.2 mM MgSO4 and 1.2 mM KH2PO4 with an osmolarity of 290 mOsm. The recording chamber was constantly superfused at a flow rate of 1 ml/min. […] Both pipette solutions were adjusted to pH 7.3 and 300-330 mOsm/l. Whole-cell patch clamp recordings were carried out with an EPC10 amplifier (HEKA, Elektronik, Lambrecht/Pfalz, Germany) in voltage clamp mode. Signals were filtered at 4 kHz using the built-in filter of EPC10 and digitally sampled at 20 kHz except spontaneous postsynaptic currents signals that were filtered at 2.5 kHz and digitally sampled at 5 kHz. Voltage protocol generation, data acquisition and analysis were made with Pulse 8.65 (HEKA, Elektronik, Lambrecht/Pfalz, Germany). The presence of spontaneous excitatory postsynaptic currents (sEPSCs) was assessed by clamping neurons to −60 mV in the presence of 100 μM picrotoxin. The presence of spontaneous inhibitory postsynaptic currents (sIPSCs) was assessed by clamping neurons to […] in the presence of 1 μM TTX, 5 μM 2,3-dioxo-6-nitro-1,2,3,4-tetrahydrobenzo[f]quinoxaline-7-sulfonamide disodium salt (NBQX) and 50 μM D-(−)-2-amino-5-phosphonopentanoic acid (APV). To further check the nature of spontaneous postsynaptic currents, NBQX (5 μM) and APV (50 μM) were used to block AMPA and NMDA receptors respectively and picrotoxin (100 μM) was used to block GABAA receptors. Fifteen neurons were recorded for each type of PSC and for each condition (DDM or DDM+cyclo).

ES cells = assay: Regional identity markers among Nestin-positive neural progenitors from ES cells differentiated in DDM+cyclo (immunofluorescence); type: cell-based, mouse
Protocol: Similar results were obtained with several ES cell lines, including distinct derivatives of E14 and J1 cells. ES cells were trypsinised, dissociated and plated at a density of 5×10^3 cells/cm^2 on gelatin-coated cell culture plastic dishes in ES medium. When needed, the cells were plated for 15-30 minutes on gelatin coated-dishes, to let the MEFS adhere and the supernatant containing ES cells only was recovered and subsequently replated on gelatin coated dishes. After adhesion, medium was changed to “Default Differentiation Medium” (DDM). DDM consists of DMEM/F12 (Invitrogen-Gibco) supplemented with 1×N2 supplement (100×N2 supplement consists of 8.61 μM insulin, 1 mM transferrin, 2 μM progesterone, 10.01 mM putrescine and 3.01 μM selenite; Invitrogen-Gibco), 2 mM glutamine (Invitrogen-Gibco), 1×MEM-nonessential amino acids (Invitrogen-Gibco), 1 mM sodium pyruvate (Invitrogen-Gibco), 110 μM beta-mercaptoethanol (Sigma) and 0.5 mg/ml Bovine Serum Albumine, Fraction V (Invitrogen-Gibco). Medium was changed every two days.
(§1) Medium was removed and cells were rinsed with PBS then fixed for 30 min in 4% paraformaldehyde (PFA) in PBS, pH 7.4 at 4° C. PFA was removed and cells were rinsed three times with PBS. Blocking of unspecific antibody activity and permeabilization was done in PBS supplemented with 5% horse serum (Invitrogen-Gibco), 3% bovine serum albumin (Sigma) and 0.3% Triton X-100 (Sigma). Incubation with primary antibodies was done in PBS supplemented with 1% horse serum, 3% bovine serum albumin and 0.1% Triton X-100 overnight at 4° C. Cells were rinsed three times with PBS and incubated with secondary antibodies in PBS supplemented with 1% horse serum, 3% bovine serum albumin and 0.1% Triton X-100 for one hour at room temperature then rinsed again three times with PBS. For double or multiple immunostaining, the process was repeated. Nuclei were stained with bisbenzimide (Hoechst#33258; Sigma) and coverslips were mounted with glycergel (DAKO). For some antibodies, antigen retrieval was used before blocking: cells were boiled during 4×5 minutes in 10 mM citrate buffer (pH 6.0) and cooled down to room temperature during 20 minutes.
(§2) For quantification of the proportion of cells expressing a specific marker (differentiation markers, region-specific markers, neurotransmitter transporter proteins or layer-specific markers), at least 300 cells from 3 independent experiments (at least 100 cells from each experiment) were counted for each time-point studied.
(§3) Experimental procedures were as described in Example 1. […] Ethanol was used as control.

[2] = system: ES cell-derived neural progenitors; conditions: short BrdU pulse
Protocol: as §3
For long term pulse chase experiments, BrdU (Becton Dickinson) was added to the differentiation medium on the different days during 24 h at a final concentration of 10 μM. Cells were dissociated after 21 days of differentiation and plated on coated coverslips for an additional day. For short-term BrdU uptake experiments, BrdU was added to the differentiation medium during 1 hour prior to cell dissociation and replating.
For BrdU detection, medium was removed and cells were rinsed with PBS then fixed for 30 min in 4% paraformaldehyde (PFA) in PBS, pH 7.4 at 4° C. PFA was removed and cells were rinsed three times with PBS. BrdU was unmasked using an antigen retrieval method: cells were boiled during 4×5 minutes in 10 mM citrate buffer (pH 6.0) and cooled down to room temperature during 20 minutes. Immunostaining was performed as described above using mouse anti-BrdU (1/50, Becton Dickinson) or rat anti-BrdU (1/250, Abcam) antibodies. Multiple labelling was performed sequentially as described above.

ES cell-derived neurons [3] = assay: Neurotransmission markers among Tuj1-positive neurons derived from ES cells (immunofluorescence); type: cell-based, mouse; conditions: of Tuj1-positive cells after 28 days of differentiation
Protocol: Similar results were obtained with several ES cell lines, including distinct derivatives of E14 and J1 cells. ES cells were trypsinised, dissociated and plated at a density of 5×10^3 cells/cm^2 on gelatin-coated cell culture plastic dishes in ES medium. When needed, the cells were plated for 15-30 minutes on gelatin coated-dishes, to let the MEFS adhere and the supernatant containing ES cells only was recovered and subsequently replated on gelatin coated dishes. After adhesion, medium was changed to “Default Differentiation Medium” (DDM). DDM consists of DMEM/F12 (Invitrogen-Gibco) supplemented with 1×N2 supplement (100×N2 supplement consists of 8.61 μM insulin, 1 mM transferrin, 2 μM progesterone, 10.01 mM putrescine and 3.01 μM selenite; Invitrogen-Gibco), 2 mM glutamine (Invitrogen-Gibco), 1×MEM-nonessential amino acids (Invitrogen-Gibco), 1 mM sodium pyruvate (Invitrogen-Gibco), 110 μM beta-mercaptoethanol (Sigma) and 0.5 mg/ml Bovine Serum Albumine, Fraction V (Invitrogen-Gibco). Medium was changed every two days. […]
For quantification of the proportion of cells expressing a specific marker (differentiation markers, region-specific markers, neurotransmitter transporter proteins or layer-specific markers), at least 300 cells from 3 independent experiments (at least 100 cells from each experiment) were counted for each time-point studied. […]

ES cell-derived neurons [4] = assay: Morphology and Pyramidal Morphology Index (PMI) of MAP2-positive neurons; type: cell-based, mouse
Source text: Pictures of at least 100 neurons stained for MAP2 were to taken randomly for each condition and from two different experiments and the quantification was done blindly in Adobe Photoshop Software using a 25 μm circle drawn on a superposed layer.

ES cell-derived neurons [5] = assay: Slice overlay assay on postnatal cortical slices, radial orientation; type: cell-based; conditions: 21 days of differentiation, four days after plating on mouse postnatal cortical slices
ES cell-derived neurons [6] = assay: Layer-specific cortical markers among Tuj1+ neurons (immunofluorescence); type: cell-based, mouse; conditions: of all Tuj1+ neurons, days 16-21
Protocol: as §1, with “Nuclei were stained with bisbenzimide (Hoechst#33258; Sigma) and coverslips were mounted with glycergel (DAKO).” left out
as §2
We studied the expression of the following layer-specific markers corresponding to the major subtypes of cortical neurons generated in vivo in the mouse, including: Tbr1 and reelin for preplate neurons and Cajal-Retzius cells; Tle4, Tbr1, CTIP2, Otx1, Er81, FoxP2 for deep ([…]) layer neurons; Satb2 and Cux1 for upper (II/III/IV) layer neurons and callosal projection neurons of layer V (see FIG. 5).

[7] = system: ES cell-derived neural progenitors; assay: Regional markers among Nestin-positive progenitors after DDM+Shh or DDM+Dkk; type: cell-based, mouse; conditions: 14 days
Protocol: FIG. 12 illustrates that neural progenitors and neurons of ventral telencephalic identity (including cortical interneurons, striatal interneurons, striatal projections neurons) can be generated from ES cells following DDM+Shh (at 1-10 μM) or DDM+DDK Wnt inhibitor (at 100-300 ng/ml), or a combination of both (at 1 μM/100 ng/ml respectively). (A) Proportion of Nestin positive neural progenitors expressing specific neural regionalization markers following 14 days of differentiation in DDM or DDM+Shh or DDM+DKK. (B), (C) Proportion of VgluT1, VgluT2 and vGAT, and reelin, Tbr1, Isl1 among Tuj1 positive neurons after 21 days of differentiation in DDM alone or DDM+Shh or DDM+DKK, or DDM+Shh/DKK.
To increase the proportion of ventral character of the ES cell-derived neural progenitors, we chose to increase Shh signalling, by adding soluble recombinant Shh to DDM, or to antagonize dorsalizing Wnt-signalling, by adding Dickkopf-1 (Dkk), a soluble antagonist of the Wnt pathway.

[8] = neurons after 28 days following differentiation in DDM
[9] = cyclopamine 1 μM day 2 to day 10, 14 days, of Nestin-positive cells

**Q.** picrotoxin was tested. Which “Inhibition of recorded iPSCs” value (ES cell-derived neurons [1]; neurons after 28 days following differentiation in DDM, picrotoxin 100 μM) did it give?
**A.** selective inhibition

**Q.** With “2,3-dioxo-6-nitro-1,2,3,4-tetrahydrobenzo[f]quinoxaline-7-sulfonamide disodium salt [NBQX]” as the molecule, how does the “Inhibition of recorded ePSCs” value (ES cell-derived neurons [1]; [8]) read?
**A.** selective inhibition

**Q.** For `N[C@H](CCCP(=O)(O)O)C(=O)O` [APV, D-(−)-2-amino-5-phosphonopentanoic acid], which “Inhibition of recorded ePSCs” value (ES cell-derived neurons [1]; [8]) is on record?
**A.** selective inhibition

**Q.** Which results are given for `CC1=C2C[C@H]3[C@@H](CC=C4C[C@@H](O)CC[C@@]43C)[C@@H]2CC[C@]12O[C@@H]1C[C@H](C)CN[C@H]1[C@H]2C` [cyclopamine]?
**A.** Otx1-2 positive neural progenitors (ES cells; cyclopamine 1 μM day 2 to day 10, 14 days of differentiation, of Nestin-positive cells): 75.57+/−1.21%; Gsh2 expression among neural progenitors (ES cells; [9]): 1.37+/−0.61%; Nkx2.1 expression among neural progenitors (ES cells; [9]): 1.87+/−1.10%; Nkx2.2 expression among neural progenitors (ES cells; [9]): 4.05+/−1.10%; Otx1 expression among neural progenitors (ES cells; [9]): 71.21+/−2.52%; Pax6 expression among neural progenitors (ES cells; [9]): 73.03+/−2.44%; Effect on the neuralization process (pattern of pan-neural markers) (ES cells; different time points, compared with DDM without cyclopamine): did not change significantly; BrdU labelled neural progenitors, day 10 ([2]; day 10): 42.11+/−3.42%; BrdU labelled neural progenitors, day 14 ([2]; day 14): 28.57+/−2.00%; VGluT1 expressing neurons (ES cell-derived neurons [3]): 70.04+/−2.98%; VGluT2 expressing neurons (ES cell-derived neurons [3]): 15.46+/−2.52%; GABAergic inhibitory post-synaptic currents (iPSCs) recorded (ES cell-derived neurons [1]): no or little iPSCs could be recorded; Neurons displaying glutamatergic excitatory post-synaptic currents (ePSCs) (ES cell-derived neurons [1]): 38.89+/−11.49%; Neurons with PMI superior to the cut-off value (ES cell-derived neurons [4]; cut-off 1.2 μm, of MAP2-positive neurons after 28 days of differentiation): 77.23+/−4.17%; PMI compared with DDM conditions (ES cell-derived neurons [4]; p<0.001, Mann-Whitney test): significantly higher PMI; Neurons showing a unipolar morphology (ES cell-derived neurons [4]; semi-quantitative scoring, MAP2-positive neurons, 28 days): 61.39+/−4.84%; Neurons displaying a radial orientation (ES cell-derived neurons [5]): 64.98+/−2.40%; CTIP2 expressing neurons (ES cell-derived neurons [6]): 36.01+/−1.52%; Cux1 expressing neurons (ES cell-derived neurons [6]): 10.56+/−0.80%; Otx1 expressing neurons (ES cell-derived neurons [6]): 15.42+/−1.06%; Satb2 expressing neurons (ES cell-derived neurons [6]): 7.60+/−0.78%; Tbr1 expressing neurons (ES cell-derived neurons [6]): 38.14+/−1.54%; reelin expressing neurons (ES cell-derived neurons [6]): 21.18+/−1.28%

B1: Dkk: Dickkopf-1 (Dkk), a soluble antagonist of the Wnt pathway (protein, UniProt O94907 32-266, looked up)
Dickkopf-related protein 1: TLNSVLNSNAIKNLPPPLGGAAGHPGSAVSAAPGILYPGGNKYQTIDNYQPYPCAEDEECGTDEYCASPTRGGDAGVQICLACRKRRKRCMRHAMCCPGNYCKNGICVSSDQNHFRGEIEETITESFGNDHSTLDGYSRRTTLSSKMYHTKGQEGSVCLRSSDCASGLCCARHFWSKICKPVLKEGQVCTKHRRKGSHGLEIFQRCYCGEGLSCRIQKDHHQASNSSRLHTCQRH
**Q.** Which “Proportion of Nkx2.1 positive progenitors” value ([7]; 300 ng/ml Dkk, of all Nestin-positive cells) does the source give for B1 here?
**A.** 29.0±2.0%

**Q.** And the “Expression of Pax6 among progenitors” value ([7]; Dkk 300 ng/ml, of Nestin-positive cells)?
**A.** 23.7±1.4%
